Where “and” joins values, the source holds several entries; their conditions need not be identical. Equal values may be shown once.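 Five compound concentrations were applied to cells in 96-well plates for 48 hours; endpoints were derived by simple linear interpolation of the resulting dose-response curve. Abbreviation: GI50, concentration required for 50% inhibition of growth. Definition used: TGI = concentration required for complete inhibition of growth.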
What was measured:
Assay in all cases: growth of human tumour cells (NCI), 48 h
[1] = tested on: CCRF-CEM leukemia
[2] = tested on: HL-60(TB) leukemia
[3] = tested on: SF-539 CNS
[4] = tested on: XF 498 CNS
[5] = tested on: M19-MEL melanoma
[6] = tested on: SNB-78 CNS
[7] = tested on: DLD-1 colon
[8] = tested on: LXFL 529 NSCLC
[9] = tested on: KM20L2 colon
[10] = tested on: DMS 273 small cell lung
[11] = tested on: DMS 114 small cell lung
[12] = tested on: HOP-18 NSCLC

| SMILES | TGI [1] | TGI [2] | TGI [3] | further results |
| --- | --- | --- | --- | --- |
| CSC1=C(C(=O)Nc2ccc(C)cc2)C(N)=NC1=O | > 100 µM | > 100 µM | > 100 µM |  |
| CC(C)CC1c2[nH]c3ccccc3c2C[C@H]2C(=O)NC(CCCCNC(=O)OC(C)(C)C)C(=O)N12 (some centres undefined) |  | 46.9 µM |  |  |
| Oc1cc(CN2CCOCCOCCOCCOCC2)c(O)cc1CN1CCOCCOCCOCCOCC1 | 44 µM | 52.4 µM | > 100 µM | TGI [4]: 42.5 µM; TGI [5]: 19.3 µM; TGI [6]: > 100 µM; TGI [7]: 48.2 µM; TGI [8]: 44.2 µM; TGI [9]: > 100 µM |
| CC/C(=N/O)c1ccc2[nH]c3c(C)cc([N+](=O)[O-])c(C)c3c2c1 | > 100 µM | > 100 µM | > 100 µM | TGI [10]: 60.8 µM; TGI [4]: > 100 µM; TGI [5]: > 100 µM; TGI [11]: > 100 µM; TGI [12]: > 100 µM; TGI [6]: > 100 µM; TGI [7]: > 100 µM |
| Cc1cc(S(=O)(=O)NC2=NCCN2Cc2ccccc2)c(S)cc1Cl | > 100 µM | > 100 µM | > 100 µM |  |
| COC(=O)c1cc(NC(=O)c2cc(NC(=O)Cc3c[nH]c4ccccc34)cn2C)cn1C | > 100 µM | 95.4 µM | > 100 µM |  |
| Cc1cc2ccc(OC(=O)c3ccc(N=C(N)N)cc3)cc2oc1=O | > 100 µM | 45.8 µM | 61.6 µM |  |
| CN(C)/C=N\c1nncc2[nH]cnc12 | > 100 µM |  | > 100 µM |  |
| CC(=O)C1(C)CC(C#N)(C#N)C(C#N)=C1N (centres undefined) | > 100 µM | > 100 µM | > 100 µM |  |
| N/C(=N\N=C\c1cc(I)cc(I)c1O)NO | 52.4 µM | 35.4 µM | 75.6 µM |  |
| CCOC(=O)CCC(NC(=O)C(N)c1ccc([N+](=O)[O-])cc1)C(=O)NC(CCC(=O)OCC)C(=O)OCC (centres undefined) |  | > 100 µM |  |  |
| COc1cccc(C=C2N=C(c3ccccc3)N(n3c(-c4ccccc4)nc4ccccc4c3=O)C2=O)c1 | > 100 µM | 59.2 µM | > 100 µM |  |
| O=c1cc(NNc2ccccc2F)[nH]c(=O)[nH]1 | 47.6 µM | 34.3 µM | 30.7 µM |  |
| Nc1ncnc2c1ncn2-c1ccc([N+](=O)[O-])cn1 | > 100 µM | > 100 µM | > 100 µM |  |
| CC1OC(OC2C(OC(=O)[C@]34CCC(C)(C)C[C@H]3C3=CC[C@@H]5[C@@]6(C)CC[C@H](OC7OC(CO)C(O)C(O)C7OC7OC(CO)C(O)C(O)C7O)C(C)(C)[C@@H]6CC[C@@]5(C)[C@]3(C)CC4)OCC(O)C2O)C(O)C(O)C1OC1OCC(O)C(OC2OCC(O)C(O)C2O)C1O (some centres undefined) | 30 µM and 31.6 µM | 4.15 µM and 7.43 µM | 42.7 µM and > 100 µM | GI50 [2]: 1 µM and 2.72 µM |
| O=[N+]([O-])c1ccc(C2=NOC(c3ccc(Cl)cc3)N2C23CC4CC(CC(C4)C2)C3)cc1 (centres undefined) | > 100 µM | > 100 µM | > 100 µM |  |
| O=C1/C(=C/c2[nH]ncc2-c2ccc(Cl)cc2)C(=O)N(c2ccccc2)C1c1ccccc1 (centres undefined) | 53.7 µM | 37 µM | 58.8 µM |  |
| Cc1ccc(NC(=O)CSc2nnc(Cc3ccccc3)o2)cc1 | > 100 µM |  | > 100 µM | TGI [10]: > 100 µM; TGI [5]: > 100 µM; TGI [11]: > 100 µM; TGI [12]: > 100 µM; TGI [6]: > 100 µM; TGI [7]: > 100 µM; TGI [8]: > 100 µM; TGI [9]: > 100 µM |

| SMILES | TGI [1] | TGI [2] | TGI [3] | further results |
| --- | --- | --- | --- | --- |
| COc1ccc(-n2c3c(c4cc(O)ccc42)Cc2ccccc2C3=O)cc1 | 27.3 µM | > 100 µM | > 100 µM |  |
| COc1ccc(NC(=O)CC(=O)NNC(Sc2ccccc2)c2cc(N=Nc3ccc(Br)cc3)ccc2O)cc1 (centres undefined) | > 10 µM | > 10 µM | > 10 µM |  |
| O=C(CC(c1ccccc1)C1C(=O)NC(=S)NC1=O)c1ccc([N+](=O)[O-])cc1 (centres undefined) | > 100 µM | > 100 µM | > 100 µM |  |
| CN=C(N)N=Nc1c(O)[nH]c2ccccc12 | > 100 µM | > 100 µM |  |  |
| Cc1cccc(/C=N\NC(=S)N2CCCCC2)n1 | 0.225 µM | 0.265 µM |  |  |
| Cc1ccc(OCC2=NC3S/C(=C/c4ccc([N+](=O)[O-])o4)C(=O)N3N2)cc1 (centres undefined) | 35.3 µM | 5.34 µM | 4.3 µM |  |
| O=C(/C=C1\N=C(c2ccccc2)N(c2nc3c(Cl)cc(Cl)cc3s2)C1=O)/C=C/c1ccccc1 | > 100 µM | > 100 µM |  |  |
| NS(=O)(=O)c1nnc(NC(=O)c2cccc([N+](=O)[O-])c2)s1 |  | > 100 µM | > 100 µM |  |
| CCCCCCSCC/C(C)=N\OC | > 100 µM | > 100 µM | > 100 µM |  |
| COc1cc(C(c2cccc3ccccc23)N2C(=O)CCC2C(=O)O)cc(OC)c1OC (centres undefined) | > 100 µM | > 100 µM | > 100 µM |  |
| CCCC(C)NC(=O)c1ccc(N(C)Cc2cnc3nc(N)nc(N)c3n2)cc1 (centres undefined) | > 100 µM | > 100 µM | 32.3 µM |  |
| Cc1cc(C)c2c(=O)n(CC(O)CN3CCN(CCOCCO)CC3)sc2n1 (centres undefined) | > 100 µM | 54.4 µM | 38.4 µM |  |
| C[C@@]1(Cc2ccccc2)C(=O)N2[C@@H](CO)C(c3ccccc3)O[C@]2(C)c2ccccc21 (some centres undefined) | > 100 µM | > 100 µM | > 100 µM | TGI [10]: > 100 µM; TGI [5]: > 100 µM; TGI [11]: > 100 µM; TGI [6]: > 100 µM; TGI [7]: > 100 µM; TGI [8]: > 100 µM; TGI [9]: > 100 µM |
| COC(=O)c1nn2ccc3ccccc3c2c1C(=O)OC |  | > 100 µM | > 100 µM |  |
| CCc1[nH]c(=O)c2oc3cc4ccccc4cc3c2c1C(=O)O |  | > 10 µM | > 10 µM |  |
| CCCCNC(=NCc1ccccc1)NC#N | > 100 µM | > 100 µM | > 100 µM | TGI [10]: > 100 µM; TGI [4]: > 100 µM; TGI [5]: > 100 µM; TGI [6]: > 100 µM; TGI [7]: > 100 µM; TGI [8]: > 100 µM; TGI [9]: > 100 µM |
| O=C(O)C(O)C(O)C(O)C(O)C(=O)O (centres undefined) | > 100 µM | > 100 µM | > 100 µM |  |
